One test addresses T1, hGLP1R (Homo sapiens, UniProt P43220).
T1 construct: expressed in transfected cells; host or cells: HEK-293 cells carrying a CRE-luciferase reporter gene
Put plainly: hGLP1R CreLuc reporter gene assay in 0.5% and 100% plasma. The class given is cell-based. Particulars: CreLuc reporter gene assay. From the text:
(§1) Example 1: hGLPR/hGIPR/hNPY2R CreLuc Assay in 0.5% and 100% Plasma
(§2) CHO and HEK-293 recombinant cell lines express a luciferase reporter gene under control of the cAMP responsive element (CRE). As a second recombinant protein the GLP-1 and NPY2 receptors were expressed in the reporter gene HEK cells, and the GIP receptor was expressed in the reporter gene CHO cells, respectively. Stimulation of these recombinant cells with an agonist leads to an increase of intracellular cAMP levels. In the presence of cAMP, the transcription factor CRE binding protein (CREB) binds to the CRE and to the CREB binding protein (CBP), which leads to transcription of the luciferase reporter gene. Peptides upon serial-dilution in 100% DMSO were transferred into 384-well assay plates with 5 μl pre-dispensed assay buffer (1×HBSS, 20 mM HEPES, pH7.4 supplemented with 0.5% human plasma) using acoustic dispensing on a Labcyte ECHO. Cryo-preserved transgenic reporter gene cells were thawed in assay buffer. 20 μl (10.000 cells/well) were added to the plate with the peptides and incubated for 4 hours at 37° C. in a humidified incubator. Following incubation, assay plates are equilibrated to room temperature, followed by addition of 25 μl of Bright-GIo™ Luciferase reagent, incubation at room temperature for 10 minutes and analysis of luminescence (Envision Reader). Concentration response evaluation of compounds was performed with 8 concentrations of peptides (covering four decades). EC50 values were calculated by non-linear regression using sigmoid concentration-response with variable slope. The same assays were run in the presence of 100% plasma with no additional buffer constituents.
On the technique in general: A reporter such as luciferase makes a cellular process visible.

For the next test, the target named is T2, hGIPR (Homo sapiens, UniProt P48546).
T2 construct: expressed in transfected cells; host or cells: CHO cells carrying a CRE-luciferase reporter gene
T2 sequence (P48546 22-466): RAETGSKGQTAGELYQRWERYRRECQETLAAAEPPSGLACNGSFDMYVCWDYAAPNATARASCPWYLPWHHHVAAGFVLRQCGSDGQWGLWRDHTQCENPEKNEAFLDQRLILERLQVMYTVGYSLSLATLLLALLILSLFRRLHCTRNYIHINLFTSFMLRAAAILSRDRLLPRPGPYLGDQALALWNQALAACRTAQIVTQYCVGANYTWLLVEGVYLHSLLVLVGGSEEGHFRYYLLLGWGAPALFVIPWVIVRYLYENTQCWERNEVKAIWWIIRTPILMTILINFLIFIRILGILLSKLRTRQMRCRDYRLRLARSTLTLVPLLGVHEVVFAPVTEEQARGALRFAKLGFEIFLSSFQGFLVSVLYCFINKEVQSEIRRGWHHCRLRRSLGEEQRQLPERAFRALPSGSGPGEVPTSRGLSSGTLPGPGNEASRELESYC
Description: hGIPR CreLuc reporter gene assay in 0.5% and 100% plasma. The conditions noted are these: CreLuc reporter gene assay. The class given is cell-based.
Source text: as §1, §2

[1] abbreviates: 0.5% human plasma, read-out: hGLP1R 0.5% hP.
Setting [2] is: 100% human plasma, read-out: hGLP1R 100% hP.
Setting [3] is: 0.5% human plasma, read-out: hGIPR 0.5% hP.
Where [4] appears, read: 100% human plasma, read-out: hGIPR 100% hP.

Drawing on US20240247080A1, “GLP1/GIP/NPY2 RECEPTOR TRIPLE AGONISTS” (Boehringer Ingelheim International GmbH, priority 2022, published 2024), this text covers EC50 for 15 substances.

Read-outs that look alike come from different tables or passages of the source. Starred links: 1 amine or outer side, 2 acyl side, 3 side chain; linkers in the order of their positions; H or OH if unused. Non-standard residues stand in square brackets, D forms with d. Groups on a side chain read outwards from the residue. No end group written: not given here. *: point of attachment. C20 diacid = O=C(O)CCCCCCCCCCCCCCCCCCC(=O)*; C18 diacid = O=C(O)CCCCCCCCCCCCCCCCC(=O)*; γGlu = O=C(O)[C@H](CCC(=O)[*:2])N[*:1]; εLys = N[C@@H](CCCCN[*:1])C(=O)[*:2]; AEEA = NCCOCCOCC(=O)O; Aib = CC(C)(N)C(=O)O; Ahx = NCCCCCC(=O)O

T1 sequence (P43220 24-463): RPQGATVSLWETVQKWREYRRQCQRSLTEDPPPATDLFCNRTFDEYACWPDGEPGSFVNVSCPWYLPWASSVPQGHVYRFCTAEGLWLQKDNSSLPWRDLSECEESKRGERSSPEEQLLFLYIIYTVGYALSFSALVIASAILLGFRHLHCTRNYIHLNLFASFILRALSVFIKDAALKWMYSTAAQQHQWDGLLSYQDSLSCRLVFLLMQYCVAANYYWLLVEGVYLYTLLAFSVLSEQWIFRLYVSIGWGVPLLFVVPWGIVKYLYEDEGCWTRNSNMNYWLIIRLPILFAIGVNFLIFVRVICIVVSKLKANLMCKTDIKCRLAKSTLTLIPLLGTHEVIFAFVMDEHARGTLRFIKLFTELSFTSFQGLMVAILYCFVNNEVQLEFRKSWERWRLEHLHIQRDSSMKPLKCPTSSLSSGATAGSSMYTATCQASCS

Turning to “H-Y[Aib]EGTFTSDYSI[Aib]LEEQAQ[Aib]AFVQWLIK([εLys-γGlu-γGlu-γGlu-γGlu-γGlu-C20 diacid])GGPSSGASLRHYYNWLTRQRY-NH2 [Compound 34, Y-Aib-E-G-T-F-T-S-D-Y-S-I-Aib-L-E-E-Q-A-Q-Aib-A-F-V-Q-W-L-I-K(1,3)-GGPSSGASLRHYYNWLTRQRY-NH2.C20DA-gGlu-gGlu-gGlu-gGlu-gGlu-eLys(1,2)]”, the EC50 at hGLP1R (setting [1]) is 0.09 nM; at hGLP1R (setting [2]) it was 1.39 nM; at hGIPR (setting [3]), 0.13 nM; on hGIPR (setting [4]), 1.61 nM.
In the case of “H-Y[Aib]EGTFTSDYSI[Aib]LEKQAQ[Aib]AFVQWLIK([εLys-γGlu-γGlu-γGlu-γGlu-γGlu-γGlu-C20 diacid])GGPSSGVSLRHYYNWLTRQRY-NH2 [Compound 47, Y-Aib-E-G-T-F-T-S-D-Y-S-I-Aib-L-E-K-Q-A-Q-Aib-A-F-V-Q-W-L-I-K(1,3)-GGPSSGVSLRHYYNWLTRQRY-NH2.C20DA-gGlu-gGlu-gGlu-gGlu-gGlu-gGlu-eLys(1,2)]”, the figures for the EC50 on hGLP1R (setting [1]), on hGIPR (setting [3]) and at hGIPR (setting [4]) were 0.07 nM, 0.25 nM and 0.73 nM, respectively.
The like results for “H-Y[Aib]EGTFTSDYSI[Aib]LEKQAQ[Aib]AFVEWLIK([εLys-γGlu-γGlu-γGlu-γGlu-γGlu-γGlu-C20 diacid])GGPSSGISLRHYYNWLTRQRY-NH2 [Compound 94, Y-Aib-E-G-T-F-T-S-D-Y-S-I-Aib-L-E-K-Q-A-Q-Aib-A-F-V-E-W-L-I-K(1,3)-GGPSSGISLRHYYNWLTRQRY-NH2.C20DA-gGlu-gGlu-gGlu-gGlu-gGlu-gGlu-eLys(1,2)]” were, in that order, 0.09 nM, 0.22 nM and 1.04 nM.
As to “H-Y[Aib]EGTFTSDYSI[Aib]LEKQAQ[Aib]AFVQWLIK([AEEA-AEEA-γGlu-γGlu-γGlu-γGlu-C18 diacid])GGPEEPASLRHYYNWLTRQRY-NH2 [Compound 57, Y-Aib-E-G-T-F-T-S-D-Y-S-I-Aib-L-E-K-Q-A-Q-Aib-A-F-V-Q-W-L-I-K(1,3)-GGPEEPASLRHYYNWLTRQRY-NH2.C18DA-gGlu-gGlu-gGlu-gGlu-OEG-OEG(1,2)]”, the EC50 on hGLP1R (setting [1]) was determined as 0.14 nM; on hGIPR (setting [3]), 0.18 nM; on hGIPR (setting [4]), 1.17 nM.
The like results for “Y[Aib]EGTFTSDYSI[Aib]LEKQAQ[Aib]EFVQWLIK([AEEA-AEEA-γGlu-γGlu-γGlu-C18 diacid])GGPSEGASLRHYYNWLTRQRY-NH2 [Compound 160, Y-Aib-E-G-T-F-T-S-D-Y-S-I-Aib-L-E-K-Q-A-Q-Aib-E-F-V-Q-W-L-I-K(1,3)-GGPSEGASLRHYYNWLTRQRY-NH2.C18DA-gGlu-gGlu-gGlu-OEG-OEG(1,2)]” were, in that order, 0.3 nM, 0.33 nM and 0.91 nM.
As to “Y[Aib]EGTFTSDYSI[Aib]LEKQAQ[Aib]AFIEWLIK([AEEA-AEEA-γGlu-γGlu-γGlu-γGlu-C18 diacid])GGPSEGASLRHYYNWLTRQRY-NH2 [Compound 258, Y-Aib-E-G-T-F-T-S-D-Y-S-I-Aib-L-E-K-Q-A-Q-Aib-A-F-I-E-W-L-I-K(1,3)-GGPSEGASLRHYYNWLTRQRY-NH2.C18DA-gGlu-gGlu-gGlu-glu-OEG-OEG(1,2)]”, the EC50 at hGLP1R (setting [1]) turned out to be 0.17 nM; on hGIPR (setting [3]), 0.16 nM; at hGIPR (setting [4]), 1.23 nM.
With “H-Y[Aib]EGTFTSDYSI[Aib]LEEQAQ[Aib]AFVQWLIK([εLys-AEEA-γGlu-γGlu-γGlu-γGlu-γGlu-C20 diacid])GGPSSGASLRHYYNWLTRQRY-NH2 [Compound 45, Y-Aib-E-G-T-F-T-S-D-Y-S-I-Aib-L-E-E-Q-A-Q-Aib-A-F-V-Q-W-L-I-K(1,3)-GGPSSGASLRHYYNWLTRQRY-NH2.C20DA-gGlu-gGlu-gGlu-gGlu-gGlu-OEG-eLys(1,2)]”, the EC50 turned out to be 0.11 nM on hGLP1R (setting [1]), 1.6 nM on hGLP1R (setting [2]), 0.14 nM at hGIPR (setting [3]) and 1.15 nM at hGIPR (setting [4]).
Take “H-Y[Aib]EGTFTSDYSI[Aib]LEKQAQ[Aib]EFVEWLIK([AEEA-γGlu-γGlu-γGlu-C18 diacid])GGPSEGASLRHYYNWLTRQRY-NH2 [Compound 274, Y-Aib-E-G-T-F-T-S-D-Y-S-I-Aib-L-E-K-Q-A-Q-Aib-E-F-V-E-W-L-I-K(1,3)-GGPSEGASLRHYYNWLTRQRY-NH2.C18DA-gGlu-gGlu-gGlu-OEG(1,2)]”: the EC50 on hGLP1R (setting [1]) came out at 0.41 nM; at hGIPR (setting [3]) it was 0.23 nM.
Take “H-Y[Aib]EGTFTSDYSI[Aib]LEKQAQ[Aib]EFVQWLIK([AEEA-AEEA-Glu-Glu-Glu-C18 diacid])GGPSEGASLRHYYNWLTRQRY-NH2 [Compound 157, Y-Aib-E-G-T-F-T-S-D-Y-S-I-Aib-L-E-K-Q-A-Q-Aib-E-F-V-Q-W-L-I-K(1,3)-GGPSEGASLRHYYNWLTRQRY-NH2.C18DA-E-E-E-OEG-OEG(1,2)]”: the EC50 is 0.35 nM on hGLP1R (setting [1]), 0.38 nM on hGIPR (setting [3]) and 1.58 nM on hGIPR (setting [4]).
Turning to “H-Y[Aib]EGTFTSDYSI[Aib]LEKQAQ[Aib]AFVQWLIK([γGlu-γGlu-γGlu-γGlu-C18 diacid])GGPSEGASLRHYYNWLTRQRY-NH2 [Compound 268, Y-Aib-E-G-T-F-T-S-D-Y-S-I-Aib-L-E-K-Q-A-Q-Aib-A-F-V-Q-W-L-I-K(1,3)-GGPSEGASLRHYYNWLTRQRY-NH2.C18DA-gGlu-gGlu-gGlu-gGlu(1,2)]”, the values for the EC50 at hGLP1R (setting [1]), at hGIPR (setting [3]) and on hGIPR (setting [4]) were 0.08 nM, 0.17 nM and 1.01 nM, respectively.
For the substance “H-Y[Aib]EGTFTSDYSI[Aib]LEKQAQ[Aib]AFVQWLIK([εLys-γGlu-γGlu-γGlu-γGlu-γGlu-γGlu-C20 diacid])GGPRYYASLRHYYNWLTRQRY-NH2 [Compound 14, Y-Aib-E-G-T-F-T-S-D-Y-S-I-Aib-L-E-K-Q-A-Q-Aib-A-F-V-Q-W-L-I-K(1,3)-GGPRYYASLRHYYNWLTRQRY-NH2.C20DA-gGlu-gGlu-gGlu-gGlu-gGlu-gGlu-eLys(1,2)]”, the figures for the EC50 on hGLP1R (setting [1]) and at hGIPR (setting [3]) were 0.4 nM and 0.71 nM, respectively.
As for “H-Y[Aib]EGTFTSDYSI[Aib]LEKQAQ[Aib]AFVEWLIK([εLys-γGlu-γGlu-γGlu-γGlu-γGlu-γGlu-C20 diacid])GGPSSGASLRHYYNLLTRQRY-NH2 [Compound 195, Y-Aib-E-G-T-F-T-S-D-Y-S-I-Aib-L-E-K-Q-A-Q-Aib-A-F-V-E-W-L-I-K(1,3)-GGPSSGASLRHYYNLLTRQRY-NH2.C20DA-gGlu-gGlu-gGlu-gGlu-gGlu-gGlu-eLys(1,2)]”, the EC50 at hGLP1R (setting [1]) was 0.13 nM; at hGIPR (setting [3]), 0.25 nM; on hGIPR (setting [4]), 1.42 nM.
As for “H-Y[Aib]EGTFTSDYSI[Aib]LE[Aib]QAQ[Aib]AFVEWLIK([εLys-γGlu-γGlu-γGlu-γGlu-γGlu-γGlu-C20 diacid])GGPSSGASLRHYYNWLTRQRY-NH2 [Compound 199, Y-Aib-E-G-T-F-T-S-D-Y-S-I-Aib-L-E-Aib-Q-A-Q-Aib-A-F-V-E-W-L-I-K(1,3)-GGPSSGASLRHYYNWLTRQRY-NH2.C20DA-gGlu-gGlu-gGlu-glu-gGlu-gGlu-eLys(1,2)]”, the EC50 on hGIPR (setting [3]) is 0.94 nM.
On to “H-Y[Aib]EGTFTSDYSI[Aib]LEKQAQ[Aib]EFVEWLIK([γGlu-γGlu-γGlu-γGlu-C20 diacid])GGPSEGASLRHYYNWLTRQRY-NH2 [Compound 271, Y-Aib-E-G-T-F-T-S-D-Y-S-I-Aib-L-E-K-Q-A-Q-Aib-E-F-V-E-W-L-I-K(1,3)-GGPSEGASLRHYYNWLTRQRY-NH2.C20DA-gGlu-gGlu-gGlu-gGlu(1,2)]”, for which the EC50 on hGIPR (setting [3]) was found to be 0.62 nM; at hGIPR (setting [4]) it was 2.62 nM.
Regarding “H-Y[Aib]EGTFTSDYSI[Aib]LEKQAQ[Aib]EFVEWLIK([Ahx-γGlu-γGlu-γGlu-γGlu-γGlu-γGlu-C18 diacid])GGPSEGASLRHYYNWLTRQRY-NH2 [Compound 279, Y-Aib-E-G-T-F-T-S-D-Y-S-I-Aib-L-E-K-Q-A-Q-Aib-E-F-V-E-W-L-I-K(1,3)-GGPSEGASLRHYYNWLTRQRY-NH2.C18DA-gGlu-gGlu-gGlu-gGlu-gGlu-gGlu-AHX(1,2)]”, the EC50 on hGIPR (setting [3]) was 0.71 nM.
